Patent publication US8580525B2, “Methods of screening for LTRPC7 modulators” (The Queen's Medical Center, priority 2000, dated 2013)
Entries after “also recorded” stand apart in the source; their conditions may differ.

Experiments:
Assay type in all cases: cell-based
[1] = molecular target: T1, LTRPC7 (Mus musculus, UniProt Q923J1); experiment: Equimolar substitution of 10 mM Ca^2+ by other divalent metal ions, whole-cell patch-clamp; conditions: 10 mM test cation replacing 10 mM Ca^2+, HEK-293 over-expressing LTRPC7; for effect on outward current / effect on inward current: 60 s; for effect on outward current: +80 mV; for effect on inward current / increase in inward current compared to Ca^2+: -80 mV; for increase in inward current compared to Ca^2+: no Mg^2+
T1 construct: expressed in transfected cells
Method: (§1) For patch-clamp experiments, cells grown on glass coverslips were transferred to the recording chamber and kept in a standard modified Ringer's solution of the following composition (in mM): NaCl 145, KCl 2.8, CsCl 10, CaCl2 1, MgCl2 2, glucose 10, Hepes.NaOH 10, pH 7.2. In some experiments, nominally Ca^2+ and/or Mg^2+-free extracellular solutions or isotonic Ca^2+ solutions (120 mM CaCl2) were applied by pressure ejection from wide-tipped pipettes. Intracellular pipette-filling solutions contained (in mM): Cs-glutamate 145, NaCl 8, MgCl2 1, Cs-BAPTA 10, pH 7.2 adjusted with CsOH. In some experiments, Cs-glutamate was replaced equimolarly by K-glutamate or N-methyl-D-glucamine-chloride. Patch-clamp experiments were performed in the tight-seal whole-cell configuration at 21-25° C. High-resolution current recordings were acquired by a computer-based patch-clamp amplifier system (EPC-9, HEKA, Lambrecht, Germany). Sylgard-coated patch pipettes had resistances between 2-4 M after filling with the standard intracellular solution. Immediately following establishment of the whole-cell configuration, voltage ramps of 50 ms duration spanning the voltage range of −100 to +100 mV were delivered from a holding potential of 0 mV at a rate of 0.5 Hz over a period of 200 to 400 seconds. All voltages were corrected for a liquid junction potential of 10 mV between external and internal solutions when internal solutions contained glutamate. Currents were filtered at 2.3 kHz and digitized at 100 μs intervals. Capacitive currents and series resistance were determined and corrected before each voltage ramp using the automatic capacitance compensation of the EPC-9. The low-resolution temporal development of currents at a given potential was extracted from individual ramp current records by measuring the current amplitudes at voltages of −80 mV or +80 mV.
LTRPC7 represents an ion channel that is selective for divalent cations at negative membrane potentials and its activity is regulated by intracellular levels of Mg.nucleotides (Nadler et al., 2001). Although the channel readily permeates monovalent ions upon removal of all divalent ions, inward currents carried by LTRPC7 under physiological conditions are largely carried by the dominant extracellular ion species Ca^2+ and Mg^2+. Ion currents carried by LTRPC7 have therefore been designated MagNuM (for Magnesium.Nucleotide-regulated Metal ion currents). In order to assess the permeation properties of LTRPC7 for other divalent ions, we measured ionic currents in substitution experiments, where 10 mM Ca^2+ was replaced with 10 mM of other divalent cations (FIG. 7). In these experiments, HEK-293 cells expressing LTRPC7 were kept in a bath solution containing 10 mM Ca^2+, without Mg^2+, and development of MagNuM was monitored by whole-cell patch-clamp as described previously (Nadler et al., 2001). When the current had reached maximal amplitude, cells were transiently exposed to an extracellular solution containing 10 mM of the test cation applied via a puffer pipette for a period of 60 s.

[2] = molecular target: T1, LTRPC7; experiment: Permeation of divalent metal ions in isotonic solutions, whole-cell patch-clamp; conditions: for effect on outward current / effect on inward current: isotonic solution (120 mM) of test cation for 60 s, HEK-293 over-expressing LTRPC7; for effect on outward current: +80 mV; for effect on inward current: -80 mV; for permeation sequence based on peak inward currents: isotonic solutions
Method: as §1
The use of isotonic solutions to probe divalent cation entry through LTRPC7 avoids complications in permeation properties arising from ion-ion interactions, and therefore allows unequivocal interpretation of inward currents—maintained or increased inward currents can only be consistent with permeation of the available extracellular cation. Isotonic solutions of 120 mM of each divalent ion yielded appropriate osmolarities within 10 mOsm from the standard bath and pipette solutions. In this series of experiments, the cells were bathed in the standard external solution containing 1 mM Ca^2+ and 2 mM Mg^2+. At 200 s, when MagNuM had reached its full amplitude, isotonic solutions of each transition metal were applied for 60 s via a puffer pipette.

[3] = molecular target: T1, LTRPC7; experiment: Permeation and block by trivalent metal ions, whole-cell patch-clamp; conditions: for suppression of inward or outward currents carried by LTRPC7: 10 μM (data not shown); for effect on outward currents / effect on inward currents: external solution with 10 mM Ca^2+ without Mg^2+; for effect on outward currents: +80 mV; for effect on inward currents: -80 mV
Method: as §1
We next tested a series of toxic trivalent metal ions (FIG. 10), which we suspected to not permeate through LTRPC7.

[4] = molecular target: T1, LTRPC7; experiment: Simultaneous patch-clamp of MagNuM and fura-2 measurement of [Ca^2+]i, block by Mg.ATP; conditions: 3 mM Mg.ATP in internal solution
Text: Based on the above permeation data, we conclude that LTRPC7 must be viewed as a potential entry pathway for a wide variety of trace and toxic metal ions. […] We therefore performed two sets of experiments to address this issue. In the first, we assayed Ca^2+ permeation of LTRPC7 under conditions in which intracellular Ca^2+ is left unbuffered and LTRPC7 is activated or suppressed by manipulation of patch pipette [ATP]i. To this end, HEK-293 cells expressing LTRPC7 were kept in a bath solution with 2 mM each of Ca^2+ and Mg^2+ and were perfused with a Cs-glutamate-based internal solution containing 200 μM fura-2. Simultaneous development of MagNuM was monitored under whole-cell patch-clamp and delivering, from a holding potential of 0 mV, repetitive voltage ramps that spanned −100 to +100 mV over 50 ms at a rate of 0.5 Hz. When Mg.ATP was absent in the pipette, MagNuM rapidly activated, as witnessed by the increase in both inward and outward currents (FIG. 11A) as well as its characteristic current-voltage relationship (FIG. 11B). […] The progressive decrease in amplitude of hyperpolarization-driven changes in [Ca^2+]i observed under these conditions is likely due to increased Ca^2+ buffering as fura-2 equilibrates with the cytosol at its final concentration of 200 μM. […]

[5] = molecular target: T1, LTRPC7; experiment: Mn^2+ quench of fura-2 fluorescence in intact cells; conditions: 1 mM Mn^2+, initial 60 s
Method: In the second approach, we assayed LTRPC7 activity in intact cells using Mn^2+ quench of fura-2 fluorescence (FIG. 11D). In this experiment, HEK-293 cells over-expressing LTRPC7 were loaded with fura-2-AM and bathed in standard external solution with 1 mM Ca^2+ and 2 mM Mg^2+. Ca^2+-independent fluorescence was monitored at 360 nm (the isosbestic wavelength of fura-2) and after 120 s, an external solution containing 1 mM Mn^2+, 1 mM Ca^2+, and 0 Mg^2+ was applied for 180 s. To determine baseline quench levels, this protocol was applied to HEK-293 cells that were transfected with the same tetracycline-inducible recombinant LTRPC7 construct, but remained uninduced. As clearly shown in FIG. 11D, the application of 1 mM Mn^2+ caused a pronounced quench of the 360 nm signal in HEK-293 cells induced to express LTRPC7 (n=5), whereas Mn^2+-induced quench of the 360 nm signal in uninduced cells (n=5) was noticeable but much less dramatic. Linear regression over the initial 60 s of Mn^2+ exposure yielded a 10-fold higher rate of Mn^2+-induced quench of fura-2 fluorescence in induced cells (28%/o/min) as compared to uninduced cells (2.9%/min).

T1 sequence (Q923J1 2-1863 limits assumed): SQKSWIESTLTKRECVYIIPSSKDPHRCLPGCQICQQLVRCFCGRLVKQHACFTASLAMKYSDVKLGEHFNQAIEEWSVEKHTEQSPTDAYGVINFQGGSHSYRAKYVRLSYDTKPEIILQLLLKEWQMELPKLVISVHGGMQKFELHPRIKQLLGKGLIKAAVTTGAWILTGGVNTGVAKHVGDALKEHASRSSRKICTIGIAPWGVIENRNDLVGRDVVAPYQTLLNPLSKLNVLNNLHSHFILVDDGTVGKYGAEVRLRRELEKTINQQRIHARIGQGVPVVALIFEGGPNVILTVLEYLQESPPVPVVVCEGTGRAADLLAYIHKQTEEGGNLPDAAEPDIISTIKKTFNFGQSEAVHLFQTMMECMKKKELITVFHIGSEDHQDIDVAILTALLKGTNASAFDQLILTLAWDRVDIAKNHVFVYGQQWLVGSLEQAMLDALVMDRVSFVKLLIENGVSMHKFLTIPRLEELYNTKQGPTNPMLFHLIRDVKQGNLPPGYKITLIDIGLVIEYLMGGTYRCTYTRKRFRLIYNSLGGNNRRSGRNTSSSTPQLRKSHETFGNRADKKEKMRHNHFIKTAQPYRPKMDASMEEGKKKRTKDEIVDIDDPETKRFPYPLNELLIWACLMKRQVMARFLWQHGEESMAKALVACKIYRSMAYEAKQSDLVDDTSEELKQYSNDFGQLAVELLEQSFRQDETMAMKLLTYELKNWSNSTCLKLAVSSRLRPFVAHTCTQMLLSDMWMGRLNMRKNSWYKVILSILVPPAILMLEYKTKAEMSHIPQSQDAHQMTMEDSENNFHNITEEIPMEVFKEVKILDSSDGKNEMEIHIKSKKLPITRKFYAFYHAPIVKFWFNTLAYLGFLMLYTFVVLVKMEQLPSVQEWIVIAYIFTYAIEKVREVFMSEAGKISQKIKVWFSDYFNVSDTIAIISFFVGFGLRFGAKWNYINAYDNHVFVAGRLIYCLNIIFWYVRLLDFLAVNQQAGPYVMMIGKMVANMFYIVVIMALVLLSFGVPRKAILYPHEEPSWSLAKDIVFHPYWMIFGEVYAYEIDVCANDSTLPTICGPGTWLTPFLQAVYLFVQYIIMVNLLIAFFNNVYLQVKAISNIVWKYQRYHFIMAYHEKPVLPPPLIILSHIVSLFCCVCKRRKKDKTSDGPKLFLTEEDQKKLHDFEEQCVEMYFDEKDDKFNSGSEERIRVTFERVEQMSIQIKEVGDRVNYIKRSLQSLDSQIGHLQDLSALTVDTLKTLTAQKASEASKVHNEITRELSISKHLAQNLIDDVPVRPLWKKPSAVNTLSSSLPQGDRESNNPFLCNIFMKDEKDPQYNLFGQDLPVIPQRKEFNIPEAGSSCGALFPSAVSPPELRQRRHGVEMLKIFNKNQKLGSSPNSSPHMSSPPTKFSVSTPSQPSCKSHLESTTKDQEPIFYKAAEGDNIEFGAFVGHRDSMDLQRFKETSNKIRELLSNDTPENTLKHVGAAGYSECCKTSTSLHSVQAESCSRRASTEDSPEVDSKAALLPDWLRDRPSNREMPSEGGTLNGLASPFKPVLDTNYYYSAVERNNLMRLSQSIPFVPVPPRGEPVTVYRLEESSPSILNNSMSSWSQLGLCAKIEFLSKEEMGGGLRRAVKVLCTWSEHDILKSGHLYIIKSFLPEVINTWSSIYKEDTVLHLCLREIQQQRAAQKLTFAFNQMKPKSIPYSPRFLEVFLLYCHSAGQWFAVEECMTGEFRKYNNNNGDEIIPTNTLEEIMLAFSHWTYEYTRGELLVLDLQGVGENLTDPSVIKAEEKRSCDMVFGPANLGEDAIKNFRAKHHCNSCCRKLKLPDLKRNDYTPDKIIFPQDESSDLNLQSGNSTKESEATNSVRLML

SMILES	effect on outward current [1]	effect on inward current [1]	increase in inward current compared to Ca^2+ [1]	effect on outward current [2]	effect on inward current [2]	further results
[Mg+2] [Mg^2+]	strongest block of outward currents; also recorded: block of the outward current	slight to moderate increase of the inward current	less than double	block of the outward current		
[Cd+2] [Cd^2+]	increases of the outward current	slight to moderate increases of the inward current				effect on outward current ([1]; listed as Cd 2+): increase of the outward current; effect on inward current ([1]; listed as Cd 2+): slight to moderate increase of the inward current
[Ba+2] [Ba^2+]	increase of the outward current	slight to moderate increase of the inward current		relatively minor inhibitions of the outward current	moderate increases of the inward	permeation sequence based on peak inward currents [2]: more effectively transported than Ca^2+ and Mg^2+
[La+3] [La^3+]						suppression of inward or outward currents carried by LTRPC7 [3]: ineffective; effect on outward currents ([3]; 10 mM): far less effective in suppressing outward currents; effect on inward currents ([3]; 10 mM): inhibited inward currents with no sign of significant permeation
[Co+2] [Co^2+]	block of outward currents; also recorded: block of the outward current	slight to moderate increase of the inward current	less than double	strong block of the outward current	gradual increase of the inward current	
[Zn+2] [Zn^2+]	block of outward currents; also recorded: block of the outward current	large increase of the inward current	greater than three-fold			
[Sr+2] [Sr^2+]	increases of the outward current	slight to moderate increases of the inward current		relatively minor inhibitions of the outward current	moderate increases of the inward	effect on outward current ([1]; listed as Sr2+): increase of the outward current; effect on inward current ([1]; listed as Sr2+): slight to moderate increase of the inward current; permeation sequence based on peak inward currents [2]: more effectively transported than Ca^2+ and Mg^2+
Nc1ncnc2c1ncn2[C@@H]1O[C@H](COP(=O)(O)OP(=O)([O-])OP(=O)([O-])O)[C@@H](O)[C@H]1O.[Mg+2] [Mg.ATP]						[Ca^2+]i (fura-2) ([4]; HEK-293 over-expressing LTRPC7): remained similarly steady; also recorded: remains at steady basal levels; LTRPC7 activity (MagNuM currents) ([4]; bath 2 mM Ca^2+ and 2 mM Mg^2+): little change in LTRPC7 activity
[Gd+3] [Gd^3+]						suppression of inward or outward currents carried by LTRPC7 [3]: ineffective; relative potency as blocker of MagNuM ([3]; 10 mM, Gd^3+ versus La^3+): more potent inhibitor; also recorded: more potent blocker of MagNuM; effect on outward currents ([3]; 10 mM): completely suppressed; effect on inward currents ([3]; 10 mM): inhibited inward currents with no sign of significant permeation
[Ni+2] [Ni^2+]	block of outward currents; also recorded: block of the outward current	large increase of the inward current	greater than three-fold	strong block of the outward current	large increase of the inward	permeation sequence based on peak inward currents [2]: most permeant metal
[Ca+2] [Ca^2+]				block of the outward current	increase of the inward	effect on outward current ([2]; listed as CaCl2): strongly inhibited outward currents; effect on inward current ([2]; listed as CaCl2): enhanced inward currents
[Mn+2] [Mn^2+]	block of outward currents; also recorded: block of the outward current	slight to moderate increase of the inward current	less than double	strong block of the outward current	gradual increase of the inward current	rate of Mn^2+-induced quench, induced compared to uninduced cells [5]: 10 fold; rate of Mn^2+-induced quench of fura-2 fluorescence ([5]; 360 nm, uninduced cells): 2.9 %/min
